# Test results published in US6737383B1, “Herbicidal oxadiazolidines” (priority 1999, dated 2004).
# Legend:
# crabgrass = test: Test B pre/postemergence crabgrass; assay type: in vivo, Digitaria sanguinalis
# In short: (§1)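 Test chemicals in a non-phytotoxic solvent mixture with surfactant were sprayed preemergence onto planted seeds and postemergence onto plants 2 to 18 cm tall (1- to 4-leaf stage). After twelve to sixteen days in a greenhouse, injury was visually rated against untreated controls from 0 (no effect) to 10 (complete control).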
# wheat = test: Test B pre/postemergence wheat; assay type: in vivo, Triticum aestivum
# In short: as §1
# wild oat = test: Test B pre/postemergence wild oat; assay type: in vivo, Avena fatua
# In short: as §1
# Alexandergrass = test: Test D Alexandergrass; assay type: in vivo, Brachiaria plantaginea; conditions: Rate 64 g/ha, Preemergence; 0 to 100 scale, 0 no injury, 100 complete control
# Text: (§2) Seeds, tubers, or plant parts of Alexandergrass (Brachiaria plantaginea), bermuda-grass (Cynodon dactylon), common pursiane (Portulaca oleracea), common ragweed (Ambrosia elatior), common groundsel (Senecio vulgaris), dallisgrass (Paspalum dilatatum), goosegrass (Eleusine indica), guineagrass (Panicum maximum), itchgrass (Rottboellia exaltata), Johnson grass (Sorghum halepense), large crabgrass (Digitaria sanguinalis), pitted morningglory (Ipomoea lacunosa), purple nutsedge (Cyperus rotundus), sandbur (Cenchrus echinatus), sourgrass (Trichachne insularis), Spanishneedles (Bidens bipinnata), surinam grass (Brachiaria decumbens) and tall mallow (Malva sylvestris) were planted into greenhouse pots of flats containing greenhouse planting medium. Plant species were grown in separate pots or individual compartments. Preemergence applications were made within one day of planting the seed or plant part.
# (§3) Test chemicals were formulated in a non-phytotoxic solvent mixture which included a surfactant and applied preemergence to the surface of the pot containing seeds in a sandy loam soil. Untreated control pots and treated pots were placed in the greenhouse for growth and visually evaluated for injury 14 to 21 days after herbicide application. Plant response ratings, summarized in Table C, are based on a 0 to 100 scale where 0 is no injury and 100 is complete control. A dash (−) response means no test result.
# common groundsel = test: Test D common groundsel; assay type: in vivo, Senecio vulgaris; conditions: Rate 64 g/ha, Preemergence; 0 to 100 scale, 0 no injury, 100 complete control
# In short: (§4)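 Each weed species is planted in its own pot or compartment; preemergence doses go on the sandy loam surface within a day. The formulation is a surfactant-containing, non-phytotoxic solvent blend. Ratings come from visual comparison with untreated controls 14 to 21 days later, where 100 means complete control.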
# goosegrass = test: Test D goosegrass; assay type: in vivo, Eleusine indica; conditions: Rate 64 g/ha, Preemergence; 0 to 100 scale, 0 no injury, 100 complete control
# Text: as §2, §3
# Green foxtail = test: Test D green foxtail; assay type: in vivo; conditions: Rate 64 g/ha, Preemergence; 0 to 100 scale, 0 no injury, 100 complete control
# In short: as §4
# [1] = Postemergence, Rate 125 g/ha, scale of 0 to 10 where 0 is no effect and 10 is complete control
# [2] = Preemergence, Rate 62 g/ha, scale 0 to 10 (0 no effect, 10 complete control)
# [3] = Preemergence, Rate 125 g/ha, 0 is no effect, 10 is complete control
# [4] = Preemergence, Rate 250 g/ha, scale 0 to 10, 0 is no effect, 10 is complete control
# [5] = Preemergence, Rate 500 g/ha, scale 0 to 10 (0 no effect, 10 complete control)
# [6] = Rate 62 g/ha, Postemergence, scale of 0 to 10 where 0 is no effect and 10 is complete control
# [7] = Rate 250 g/ha, Postemergence, scale 0 to 10, 0 is no effect, 10 is complete control
# [8] = Rate 500 g/ha, Postemergence, scale 0 to 10
smiles,measurement,setting,value
CCCn1c(=O)on(C(=O)N(c2ccc(F)cc2F)C(C)C)c1=O [Compound 130],Crabgrass plant response rating,crabgrass; [1],9
same,Crabgrass plant response rating,crabgrass; [2],6
same,Crabgrass plant response rating (0 to 10 scale),crabgrass; [3],9
same,Crabgrass plant response rating,crabgrass; [4],9
same,Crabgrass plant response rating,crabgrass; [5],10
same,Crabgrass plant response rating,crabgrass; [6],5
same,"Plant response rating, Crabgrass",crabgrass; [7],9
same,Crabgrass plant response rating,crabgrass; [8],9
same,Wheat plant response rating,wheat; [1],1
same,Wheat plant response rating,wheat; [2],2
same,Wheat plant response rating (0 to 10 scale),wheat; [3],3
same,Wheat plant response rating,wheat; [5],4
same,Wheat plant response rating,wheat; [6],0
same,"Plant response rating, Wheat",wheat; [7],3
same,Wheat plant response rating,wheat; [8],8
same,Wild oats plant response rating,wild oat; [1],2
same,Wild oats plant response rating,wild oat; [2],7
same,Wild oats plant response rating (0 to 10 scale),wild oat; [3],8
same,Wild oats plant response rating,wild oat; [4],10
same,Wild oats plant response rating,wild oat; [5],10
same,Wild oats plant response rating,wild oat; [6],0
same,"Plant response rating, Wild oats",wild oat; [7],5
same,Wild oats plant response rating,wild oat; [8],8
same,"Plant response rating, Alexandergrass",Alexandergrass,98
same,"Plant response rating, Com. groundsel",common groundsel,0
same,"Plant response rating, Goosegrass",goosegrass,100
same,Green foxtail plant response rating,Green foxtail,100
same,"Plant response rating, Green foxtail",Green foxtail,100
